This data set in a line: Solubility/stability of CTA-acid salts in water. The format is physicochemical. The note with it: CTA-acid dispersed in water at 1 wt. %, dissolved by adding the base/amine; solubility checked again after 48 hrs. at room temperature. The procedure: These new CTA-“bases” were made using the same procedure shown above (“Formation of CTA-Acid Salt(s)”) starting with CTA-acid. The stability of several amines was tested by dispersing CTA-acid in water at 1 wt. % CTA-acid, and then dissolution by adding the amine.
For the compound `NCCNCCO`, the Soluble result is “yes”.

In the case of `CC(C)CCCCCCCCCOCCCN`, the Soluble result is recorded as “no”.

In the case of `O=C1CCCN1CCO`, the Soluble result is recorded as “no”.

Take `NCCOCCOCCN`: the Soluble result is recorded as “no”.

For the compound `NCCOCCO`, the Soluble entry is reported as “yes”.

The values above are taken from US10280101B2, “Water soluble chain transfer agents” (The Lubrizol Corporation, priority 2015, dated 2019).
